Results reported in patent US20170351014A1, “NEAR-INFRARED ABSORPTION COMPOSITION, CURED FILM, NEAR-INFRARED ABSORPTION FILTER, SOLID-STATE IMAGING DEVICE, AND INFRARED SENSOR” (FUJIFILM Corporation, priority 2015, published 2017).

Key:
Assay type in all cases: physicochemical
[1] = Near-infrared shieldability evaluation of cured film; conditions: cured film 1.0 μm, Resin 1, transmittance at 785 nm
Method: (§1) A near-infrared absorption composition was prepared by mixing according to the following composition. The solid content of the composition was 31 mass %, and the content of the near-infrared absorption substance with respect to the total solid content of the composition was 7.5 mass %.
(§2) Each composition was applied to a glass substrate (1737 manufactured by Corning Inc.) using a spin coater such that a film thickness after drying was 1.0 μm, and a heating treatment (pre-baking) was performed thereon for 120 seconds using a hot plate at 100° C.
(§3) Next, entire surface exposure was performed at 500 mJ/cm2 using an i-ray stepper exposure device FPA-3000i5+(manufactured by Canon Inc.). Next, paddle development was performed for 60 seconds at 23° C. using a developing machine (CD-2060, manufactured by FUJIFILM Electronics Materials Co., Ltd.), and a rinsing treatment was performed with pure water. Then, spray drying was performed thereon. Using a hot plate at 200° C., a heating treatment (post-baking) was performed for 300 seconds to obtain a cured film.
The transmittance of each cured film at the maximum absorption wavelength was measured using a spectrophotometer U-4100 (manufactured by Hitachi High-Technologies Corporation). The near-infrared shieldability was evaluated based on the following standards.
A: Transmittance at 785 nm≦10%
D: 40%<Transmittance at 785 nm

[2] = Maximum absorption wavelength and absorbance ratio of cured film; conditions: cured film 1.0 μm, Resin 1
Method: (§4) A maximum absorption wavelength of each film and an absorbance ratio as a value obtained by dividing an absorbance at a wavelength of 555 nm by an absorbance at the maximum absorption wavelength were measured using a spectrophotometer U-4100 (manufactured by Hitachi High-Technologies Corporation).
as §1, §2, §3

[3] = Visible transparency evaluation of cured film; conditions: cured film 1.0 μm, Resin 1, minimum transmittance at 500 to 600 nm
Method: as §1, §2, §3
The transmittance of each cured film at a wavelength of 500 to 600 nm was measured using a spectrophotometer U-4100 (manufactured by Hitachi High-Technologies Corporation). The visible transparency was evaluated based on the following standards.
A: 80% 5 Minimum value of transmittance at wavelength of 500 to 600 nm
B: 70%: Minimum value of transmittance at wavelength of 500 to 600 nm<80%
C: 60%: Minimum value of transmittance at wavelength of 500 to 600 nm<70%
D: Minimum value of transmittance at wavelength of 500 to 600 nm<60%

[4] = Maximum absorption wavelength and absorbance ratio of film formed from near-infrared absorption composition; conditions: film on glass
Method: A near-infrared absorption composition was prepared by mixing according to the following composition.
Each composition was applied to a glass substrate (1737 manufactured by Corning Inc.) using a spin coater, and a heating treatment was performed thereon for 120 seconds using a hot plate at 120° C.
as §4

[5] = Solubility of compound to propylene glycol monomethyl ether acetate (PGMEA); conditions: PGMEA at 25° C.
Method: The solubility of each compound to propylene glycol monomethyl ether acetate (PGMEA) at 25° C. was evaluated based on the following standards.
A: The solubility of the compound to PGMEA at 25° C. is 2 mass % or greater.

[6] = Resin A (benzyl methacrylate/methyl methacrylate copolymer), 120° C. 120 seconds

COB(OC)n1c(-c2ccccc2-c2ccccc2)c2/c(=C(\C#N)c3nc4ccc(Cl)cc4o3)n(B(OC)OC)c(-c3ccccc3-c3ccccc3)c2/c1=C(\C#N)c1nc2ccc(Cl)cc2o1 [Compound D-5]
Near-Infrared Shieldability [1]: B (10%<Transmittance at 785 nm≦25%) | Absorbance Ratio (555 nm/λmax) [2]: 0.15 | Maximum Absorption Wavelength [2]: 780 nm | Visible Transparency [3]: C (60%: Minimum value of transmittance at wavelength of 500 to 600 nm<70%) | Absorbance Ratio (555 nm/λmax) ([4]; Resin A): 0.14 | Maximum Absorption Wavelength [4, 6]: 790 nm

CCCCCCCCOc1ccc(-c2c3/c(=C(\C#N)c4nc(C)cc(C)n4)n(B(c4ccccc4)c4ccccc4)c(-c4ccc(OCCCCCCCC)cc4)c3/c(=C(\C#N)c3nc(C)cc(C)n3)n2B(c2ccccc2)c2ccccc2)cc1 [Compound A-12]
Solubility [5]: B (The solubility of the compound to PGMEA at 25 °C is 0.5 mass % to less than 2 mass %.) | Solubility (in words) [5]: excellent solubility | Near-Infrared Shieldability [1]: B (10%<Transmittance at 785 nm≦25%) | Absorbance Ratio (555 nm/λmax) [2]: 0.10 | Maximum Absorption Wavelength [2]: 762 nm | Visible Transparency [3]: B (70%: Minimum value of transmittance at wavelength of 500 to 600 nm<80%) | Absorbance Ratio (555 nm/λmax) ([4]; Resin A): 0.10 | Maximum Absorption Wavelength [4, 6]: 763 nm

CCCCCCCCOc1ccc(-c2c3/c(=C(\C#N)c4cc5cc(C(C)(C)C)ccc5cn4)n(B(c4ccccc4)c4ccccc4)c(-c4ccc(OCCCCCCCC)cc4)c3/c(=C(\C#N)c3cc4cc(C(C)(C)C)ccc4cn3)n2B(c2ccccc2)c2ccccc2)cc1 [Compound A-100]
Solubility [5]: C (The solubility of the compound to PGMEA at 25 °C is less than 0.5 mass %.) | Near-Infrared Shieldability [1]: D (40%<Transmittance at 785 nm) | Absorbance Ratio (555 nm/λmax) [2]: 0.12 | Maximum Absorption Wavelength [2]: 855 nm | Visible Transparency [3]: B (70%: Minimum value of transmittance at wavelength of 500 to 600 nm<80%) | Absorbance Ratio (555 nm/λmax) ([4]; Resin A): 0.11 | Maximum Absorption Wavelength [4, 6]: 860 nm | Absorbance Ratio (555 nm/λmax) ([4]; Resin B (polycaprolactone)): 0.11 | Maximum Absorption Wavelength ([4]; Resin B (polycaprolactone)): 863 nm
